Where two headings read alike, the source gives them in different places.
How the values were obtained:
mHTT protein = mHTT protein assay (2B7-MW1, Mesoscale Discovery); format: cell-based, human; settings: GM04724 (CAG 70/20) Huntington's disease patient lymphoblast cells, 48 hours, 2B7-MW1 MSD; read-out: HTT Potency - Protein EC50 mHTT (average)
Summary of the method: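 mHTT levels were read with the 2B7-MW1 antibody pair (N17 and polyQ epitopes) on MSD after 48 h dosing, 10 μM–0.6 nM. Cells were GM04724 HD lymphoblasts (CAG 70/20). A replica plate was read by CTG for cell viability.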

[1] = system: MDR1-MDCK cell monolayers; assay: MDCK-MDR1 permeability assay (BBB penetration potential); format: in vitro ADME; settings: dog, MDCK-MDR1, 120 min, 5 μM, pH 7.4
Description: (§1) Each determination is performed in duplicate. […] Analytical conditions are outlined below.

MDR1 = assay: as above; format: in vitro ADME; settings: dog; for efflux ratio at 120 min, 5 μM: MDCK-MDR1, pH 7.4, MDCK-MDR1: Efflux; for Papp A→B at 120 min, 5 μM: MDCK-MDR1, pH 7.4, MDCK-MDR1: Papp A-B; for Papp B→A at 120 min, 5 μM: MDCK-MDR1, pH 7.4, MDCK-MDR1: Papp B-A
Description: as §1

[2] = system: Huntingtin (HTT) transcripts; assay: Quantitative splicing assay (HTT), qPCR; format: cell-based; settings: Homo sapiens, GM04724 (CAG 70/20) Huntington's disease patient lymphoblasts, 24 h
Description: GM04724 (CAG 70/20) Huntington's disease patient lymphoblasts (Coriell) are plated in 96-wel v-bottom plates at 50,000 cells/well. Immediately after plating, cells are dosed with compound for 24 h at concentrations ranging from 2.5 uM to 0.15 nM (0.1% DMSO). Treated cells are lysed and cDNA synthesized using the Fast Advanced Cells-to-Ct kit (Thermofisher A35378) according to the manufacturer's instructions. 2 uL of each cDNA are used in qPCR reactions to confirm the compound-induced inclusion of a cryptic exon within intron 49 of the Huntingtin (HTT) transcripts. The qPCR reactions are prepared in 384-well plates in 10 uL volume, using TaqMan™ Fast Advanced Master Mix [ThermoFisher; 4444965] with primers and probes shown in the table below. Reactions are run in a Quant Studio 6 qPCR instrument with default settings.

[3] = qPCR HTTex49_50, read-out: HTT Potency - Splicing: E49-50 EC50 (average)
[4] = qPCR cryptic exon 49b inclusion, read-out: HTT Potency - Splicing: E49b EC50 (average)

| Structure (SMILES) | EC50 (mHTT protein) | MDCK-MDR1: % Recov A-B [1] | MDCK-MDR1: % Recov B-A [1] | efflux ratio at 120 min, 5 μM (MDR1) | Papp A→B at 120 min, 5 μM (MDR1) | Papp B→A at 120 min, 5 μM (MDR1) | EC50 [2, 3] | EC50 [2, 4] |
| --- | --- | --- | --- | --- | --- | --- | --- | --- |
| Cn1cnc2cc(O)c(-c3ccc(O[C@H]4C[C@]5(C)CCC[C@@](C)(N5)[C@H]4F)nn3)cc2c1=O (single isomer, unassigned) [133-ENT1] | 0.01 to 15 nM | 81% | 87% | 10 | 4.98 ×10⁻⁶ cm/s | 52.4 ×10⁻⁶ cm/s | 101 to 500 nM | 51 to 100 nM |
| Cn1ccc2cc(-c3ccc(O[C@@H]4C[C@H]5CCC[C@H](N5)[C@@H]4F)nn3)c(O)cc2c1=O (single isomer, unassigned) [125-ENT2] | 16 to 50 nM | 84% | 87% | 16 | 3.2 ×10⁻⁶ cm/s | 52 ×10⁻⁶ cm/s | 101 to 500 nM | 51 to 100 nM |
| Cn1ccc(-c2cc(O)c(-c3ccc(O[C@H]4C[C@@H]5CCC[C@@H](N5)[C@H]4F)nn3)cc2F)cc1=O (single isomer, unassigned) [58-ENT2] | 0.01 to 15 nM | 83% | 90% | 47 | 1.17 ×10⁻⁶ cm/s | 55.1 ×10⁻⁶ cm/s | 16 to 50 nM | 16 to 50 nM |
| Cn1c(=O)oc2cc(-c3ccc(O[C@H]4C[C@@H]5CCC[C@@H](N5)[C@H]4F)nn3)c(O)cc21 (single isomer, unassigned) [74-ENT2] | 501 to 10000 nM | 87% | 75% | 5 | 6.96 ×10⁻⁶ cm/s | 31.4 ×10⁻⁶ cm/s | 501 to 10000 nM | 501 to 10000 nM |
| C[C@@]12CCC[C@@](C)(N1)[C@@H](F)[C@@H](Oc1ccc(-c3ccc(-c4cn[nH]c4)cc3O)nn1)C2 (single isomer, unassigned) [147-ENT1] | 0.01 to 15 nM | 78% | 83% | 13 | 4.61 ×10⁻⁶ cm/s | 58.1 ×10⁻⁶ cm/s | 0.01 to 15 nM | 0.01 to 15 nM |
| Cn1cc(-c2cc(O)c(-c3ccc(O[C@H]4C[C@@H]5CCC[C@@H](N5)[C@H]4F)nn3)cc2Cl)cn1 (single isomer, unassigned) [120-ENT2] | 51 to 100 nM | 28% | 71% | 7 | 4.47 ×10⁻⁶ cm/s | 30.2 ×10⁻⁶ cm/s | 51 to 100 nM | 16 to 50 nM |
| Cc1ncc(-c2ccc(-c3ccc(O[C@H]4C[C@@H]5CCC[C@@H](N5)[C@H]4F)nn3)c(O)c2)s1 (single isomer, unassigned) [96-ENT2] | 16 to 50 nM | 35% | 67% | 2 | 6.73 ×10⁻⁶ cm/s | 11.6 ×10⁻⁶ cm/s | 16 to 50 nM | 16 to 50 nM |
| C[C@]12CC[C@](C)(N1)[C@H](F)[C@H](Oc1ccc(-c3ccc(-c4cn[nH]c4)cc3O)nn1)C2 (single isomer, unassigned) [2-ENT1] | 0.01 to 15 nM | 77% | 89% | 12 | 4.15 ×10⁻⁶ cm/s | 50.7 ×10⁻⁶ cm/s | 0.01 to 15 nM | 0.01 to 15 nM |
| Oc1cc(-c2ccn3ccnc3c2)ccc1-c1ccc(O[C@@H]2C[C@H]3CCC[C@H](N3)[C@@H]2F)nn1 (single isomer, unassigned) [83-ENT1] | 101 to 500 nM | 48% | 64% | 23 | 1.05 ×10⁻⁶ cm/s | 23.8 ×10⁻⁶ cm/s | 501 to 10000 nM | 501 to 10000 nM |
| Oc1cc(-c2nnco2)ccc1-c1ccc(O[C@H]2C[C@@H]3CC[C@@H](N3)[C@H]2F)nn1 (single isomer, unassigned) [140-ENT1] | 101 to 500 nM | 92% | 95% | 2 | 18.1 ×10⁻⁶ cm/s | 43.3 ×10⁻⁶ cm/s | 101 to 500 nM | 101 to 500 nM |

— US12522597B2, “Methods and compositions for modulating splicing” (Skyhawk Therapeutics, Inc., priority 2019, dated 2026)
